Data taken from patent US9504728B2, “Dosage form” (priority 2011, dated 2016).
Where two headings read alike, the source gives them in different places.

Columns and labels:
in vivo = details: CD1 mice; for AUC(0-t) / bioavailability: male, mouse; for bioavailability: read-out: Oral bioavailability F %
Protocol: For sanglifehrins, whole blood is analysed. Compounds are formulated in 5% ethanol/5% cremophor EL/90% saline for both p.o. and i.v. administration. Groups of 3 male CD1 mice are dosed with either 1 mg/kg i.v. or 5 or 10 mg/kg p.o. Blood samples (40 μL) are taken via saphenous vein, pre-dose and at 0.25, 0.5, 2, 8, and 24 hours, and diluted with an equal amount of dH20 and put on dry ice immediately. Samples are stored at −70° C. until analysis. The concentration of the sanglifehrin or parent compound in the sample is determined via LCMS as follows: 20 μL of blood:H2O (1:1, v/v)/PK sample is added with 20 μL Internal standard (hydroxyl macrocycle, 6) at 100 ng/mL, 20 μL working solution/MeOH and 150 μL of ACN, vortexed for 1 minute at 1500 rpm, and centrifuged at 12000 rpm for 5 min. The supernatant is then injected into LC-MS/MS. The time-course of blood concentrations is plotted and used to derive area under the whole blood concentration-time curve (AUC—which is directly proportional to the total amount of unchanged drug that reaches the systemic circulation). These values are used to generate PK parameters where possible.
To assess the pharmacokinetics of the compounds in an in vivo setting, compounds were dosed po at 10 or 5 mg/kg and iv at 1 mg/kg to groups of CD1 mice.
Pharmacokinetic analysis was carried out as described in the general methods.

[1] = In vitro stability in acidic and neutral conditions (SGF, SGF + pepsin, SGF + denatured pepsin, PBS); details: for PBS % remaining after 1 hour: phosphate buffered saline pH 7.3, 37° C.; for SGF % remaining after 1 hour: simulated gastric fluid pH 1.2, 37° C.
Protocol: 1 mM DMSO solutions were made of compounds to be tested and mixed on vibrax to ensure compound was fully dissolved.
PBS Solution: 2 tablets of Phosphate Buffered Saline (Dulbecco A) tablets (Oxoid, BR0014G) were added to 200 mL distilled water and stirred to mix. pH was measured at 7.28.
Simulated Gut Fluid (SGF): 300 uL conc. HCl added to 50 mL distilled water and mixed. pH was measured at 1.21.
Simulated gut fluid+pepsin: 300 uL conc. HCl and 1 g of Pepsin (from Porcine gastric mucosa, Sigma) were added to 50 mL distilled water and mixed by stirring for 1 hr.
SGF+denatured pepsin: 900 uL of Acidic Enzyme Solution taken into a 2 mL eppendorf tube and heated at 99° C. in a water bath for 30 mins.
Acidic Enzyme and Acidic Denatured Enzyme solutions were made fresh each day, whereas PBS and Acid Solutions were stored at 4° C. when not in use.
Eppendorfs containing 900 uL of test solutions were pre-warmed in a 37° C. water bath. At t=0, 100 uL of test compound (1 mM DMSO solution) was added to test solution and mixed. 100 uL was taken immediately and mixed into 900 uL acetonitrile in an amber glass LC vial. 50-100 uL of the sample was analysed by HPLC, integrating the compounds' UV peaks to determine degradation over time. Sanglifehrin A was measured at its λmax of 240 nm; 33, 45 and 24 were measured at their λmax of 276 nm.
Further samples were taken in the same manner for analysis at approximately t=0.33, 0.67, 1.0, 2.67, and 4.67 hr. A final analysis was run at t=>30 to confirm end point of reaction.
Controls of test compound DMSO solutions in 900 uL DMSO were also prepared and treated in the same manner, with samples analysed at t=0, t=8 and t=>30 hr. Half lives were calculated from the data generated.
Stability of compounds was analysed in simulated gastric fluid, pH1.2 (SGF) and phosphate buffered saline, pH7.3 (PBS).

HBV = details: Ptak et al. 2008; read-out: IC50 against HBV; cited from earlier work
HIV-1 = details: Steyn et al., 2006, cited from earlier work
cyclophilin A (CypA) = cyclophilin A (CypA) (Homo sapiens, UniProt P62937); details: cited from earlier work
calcineurin = details: in words; Zenke et al. 2001; cited from earlier work
[2] = iv, whole blood, 1 mg/kg i.v., read-out: AUClast after 1 mg/kg i.v. dose
[3] = whole blood, po, p.o. 10 or 5 mg/kg vs i.v. 1 mg/kg

cyclophilin A (CypA), sequence (P62937 whole entry): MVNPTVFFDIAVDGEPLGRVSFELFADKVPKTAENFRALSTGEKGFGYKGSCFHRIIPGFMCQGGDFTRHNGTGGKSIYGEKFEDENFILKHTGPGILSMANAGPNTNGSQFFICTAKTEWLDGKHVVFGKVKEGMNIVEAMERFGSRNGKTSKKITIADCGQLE

| SMILES | AUC(0-t) (in vivo; [2]) | bioavailability (in vivo; [3]) | SGF + denatured pepsin, % remaining after 1 hour ([1]; 37° C., 1 hour) | SGF + Pepsin, % remaining after 1 hour ([1]; SGF + pepsin, 37° C., 1 hour) | PBS % remaining after 1 hour ([1]; 1 hour) | SGF % remaining after 1 hour ([1]; 1 hour) | other results |
| --- | --- | --- | --- | --- | --- | --- | --- |
| CC(=O)CC[C@H]1C(=O)N[C@@H](C(C)C)C(=O)N[C@@H](Cc2cc(O)cc(F)c2)C(=O)N2CCCC(N2)C(=O)O[C@H](/C(C)=C/C=C/C(=O)N2CCCCO2)C/C=C/C=C/[C@H](O)[C@H](C)[C@H]1O (stereo partly drawn) [Compound 24] | 45500 ng·h/mL | 3.6% | 30% | 23% | 100% | 18% | half-life at 100 µM ([1]; phosphate buffered saline (PBS), pH 7.3): > 1440 min; half-life at 100 µM ([1]; simulated gastric fluid (SGF), pH 1.2): < 19.8 min |
| CON(C)C(=O)/C=C/C=C(\C)[C@@H]1C/C=C/C=C/[C@H](O)[C@H](C)[C@@H](O)[C@@H](CCC(C)=O)C(=O)N[C@@H](C(C)C)C(=O)N[C@@H](Cc2cccc(O)c2)C(=O)N2CCCC(N2)C(=O)O1 (stereo partly drawn) [Compound 33] | 14300 ng·h/mL | 1.6% | – | – | – | – | AUC(0-t) (in vivo; po, whole blood, 10 mg/kg p.o., read-out: AUClast after 10 mg/kg p.o. dose): 2200 ng·h/mL; half-life at 100 µM ([1]; buffer, pH 7.3): > 1440 min; SGF + Pepsin, % remaining after 1 hour ([1]; pig, simulated gi fluid, 1 h, 100 µM): 25%; half-life at 100 µM ([1]; simulated gi fluid, pH 1.2): 39.6 min |
| CC(=O)CC[C@H]1C(=O)N[C@@H](C(C)C)C(=O)N[C@@H](Cc2cccc(O)c2)C(=O)N2CCCC(N2)C(=O)O[C@H](/C(C)=C/C=C/C(=O)Nc2ccc(-c3ccccc3)cc2)C/C=C/C=C/[C@H](O)[C@H](C)[C@H]1O (stereo partly drawn) [Compound 44] | 2500 ng·h/mL | 0% | – | – | – | – | – |
| CC(=O)CC[C@H]1C(=O)N[C@@H](C(C)C)C(=O)N[C@@H](Cc2cccc(O)c2)C(=O)N2CCCC(N2)C(=O)O[C@H](/C(C)=C/C=C/C(=O)N2CCCCO2)C/C=C/C=C/[C@H](O)[C@H](C)[C@H]1O (stereo partly drawn) [Compound 45] | – | – | 15% | 17% | 100% | 13% | AUC(0-t) (in vivo; in vivo, iv, whole blood, 1 mg/kg i.v., read-out: AUClast after 1 mg/kg i.v. dose): 15100 ng·h/mL; bioavailability (in vivo; in vivo, po, p.o. 10 or 5 mg/kg vs i.v. 1 mg/kg): 3.2%; AUC(0-t) (in vivo; in vivo, po, whole blood, 10 mg/kg p.o., read-out: AUClast after 10 mg/kg p.o. dose): 4840 ng·h/mL; half-life at 100 µM ([1]; buffer, pH 7.3): > 1440 min; half-life at 100 µM ([1]; simulated gi fluid, pH 1.2): < 19.8 min |
| C/C=C/C[C@@H](C)[C@@H](O)[C@H]1C(=O)N[C@@H](CC)C(=O)N(C)[C@H](C)C(=O)N(CC)[C@@H](C(C)C)C(=O)N[C@@H](C(C)C)C(=O)N(C)[C@@H](CC(C)C)C(=O)N[C@@H](C)C(=O)N[C@H](C)C(=O)N(C)[C@@H](CC(C)C)C(=O)N(C)[C@@H](CC(C)C)C(=O)N(C)[C@@H](C(C)C)C(=O)N1C [DEBIO-025] | – | – | – | – | – | – | IC50 (HBV): 4.1 µM; reduction of HIV-1 RNA levels (HIV-1; in nine patients): ≥ 0.5 log 10 copies/mL; reduction of HIV-1 RNA levels (HIV-1; in two patients): > 1 log 10 copies/mL |
| CC[C@H]1C[C@H](C)[C@@]2(NC1=O)O[C@@H](C[C@H](O)[C@@H](C)CC/C=C/C=C(\C)[C@@H]1C/C=C/C=C/[C@H](O)[C@H](C)[C@@H](O)[C@@H](CCC(C)=O)C(=O)N[C@@H](C(C)C)C(=O)N[C@@H](Cc3cccc(O)c3)C(=O)N3CCC[C@H](N3)C(=O)O1)[C@H](C)[C@H](O)[C@@H]2C [Sanglifehrin A, 5, Sanglifehrin A, reference compound] | – | – | 49% | 41% | 76% | 52% | Oral bioavailability F % (in vivo; p.o. 10 or 5 mg/kg vs i.v. 1 mg/kg): 1.4%; affinity for CyPA compared to Cyclosporine A (fold higher) (cyclophilin A (CypA); relative to CsA): approximately 20 fold; inhibition of the phosphatase activity of calcineurin (calcineurin): does not inhibit |
| CC(=O)CC[C@H]1C(=O)N[C@@H](C(C)C)C(=O)N[C@@H](Cc2cccc(O)c2)C(=O)N2CCC[C@H](N2)C(=O)O[C@H](/C(C)=C/CO)C/C=C/C=C/[C@H](O)[C@H](C)[C@H]1O [hydroxymacrocycle, 6, hydroxymacrocycle] | – | – | – | – | – | – | affinity for CyPA (cyclophilin A (CypA); in words, Sedrani et al., 2003): strong affinity |
